IC50 data for 26 compounds are collected here from patent publication US10377770B2 (Novartis AG, priority 2015, dated 2019).

A word on the IC50: it is the concentration at which inhibition is half-maximal. The low end stands for greater potency, the high end for weaker potency.

The target in the test is C-Raf FL (full length CRAF with Y340E and Y341E activating mutations, co-expressed with h14-3-3 zeta) (Homo sapiens (Human), UniProt P04049, Y340E/Y341E). Kind of test: In vitro Raf activity determination, AlphaScreen p-MEK readout, c-Raf (C-Raf FL). The note with it: c-Raf approximately 4 nM, ATP 1 μM, pre-incubation 60 minutes, reaction 1 hour. In kind it is biochemical. A digest of the protocol: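 Phosphorylation of kinase-dead biotinylated MEK1 (~10 nM) by C-Raf FL (~4 nM) read by AlphaScreen luminescence with anti-phospho-MEK1/2 after EDTA stop. ATP was 1 μM, with a 1 h reaction at room temperature. Compounds were pre-incubated with enzyme and substrate for 60 min in Tris/MgCl2 buffer, pH 7.5.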

In the case of `Cc1ccc(NC(=O)c2ccnc(C(C)(F)F)c2)cc1-c1cnc2c(c1)N1CCOC[C@H]1C[C@@]2(C)O` (racemic) [Example 41, (rac)-(trans)-2-(1,1-difluoroethyl)-N-(3-(6-hydroxy-6-methyl-1,2,4,4a,5,6-hexahydro-[1,4]oxazino[4,3-a][1,5]naphthyridin-9-yl)-4-methylphenyl)isonicotinamide], the IC50 is 0.0099 nM.
Take `Cc1ccc(NC(=O)c2cnnc(C(F)(F)F)c2)cc1-c1ccc2c(c1)N1CCOC[C@@H]1[C@](F)(CO)C2` [Example 403, N-(3-((4aR,5S)-5-fluoro-5-(hydroxymethyl)-1,2,4,4a,5,6-hexahydro-[1,4]oxazino[4,3-a]quinolin-9-yl)-4-methylphenyl)-6-(trifluoromethyl)pyridazine-4-carboxamide]: the concentration for half-maximal inhibition (IC50) is 0.1 nM.
The compound `CCN1C(=O)[C@@H]2COCC[C@H]2c2cc(-c3cc(NC(=O)c4cccc(C(F)(F)F)c4F)cnc3C)cnc21` [Example 256, N-(5-((4aS, 10bR)-6-ethyl-5-oxo-2,4,4a,5,6,10b-hexahydro-1H-pyrano[3,4-c][1,8]naphthyridin-9-yl)-6-methylpyridin-3-yl)-2-fluoro-3-(trifluoromethyl) benzamide] returned an IC50 of 0.1 nM.
As for `Cc1ccc(NC(=O)c2ccnc(C(F)(F)F)c2)cc1-c1cnc2c(c1)N1CCOC[C@H]1C[C@]2(C)O` (racemic) [Example 40, (rac)-(cis)-N-(3-(6-hydroxy-6-methyl-1,2,4,4a,5,6-hexahydro-[1,4]oxazino[4,3-a][1,5]naphthyridin-9-yl)-4-methylphenyl)-2-(trifluoromethyl)isonicotinamide], the figure is 0.066 nM.
“N-(3-(8-(2- hydroxyethyl)-7- oxo- 1,2,4,5,5a,6,7,8- octahydropyrido[3′, 2′:2,3][1,4]diazepino [1,7- d][1,4]oxazepin- 11-yl)-4- methylphenyl)-2- (trifluoromethyl) isonicotinamide [Example 320]” registered a half-maximal inhibitory concentration (IC50) of 0.8 nM.
`CCN1C(=O)C2COCCC2(C)c2cc(-c3cc(NC(=O)c4cccc(C(F)(F)F)c4)cnc3C)cnc21` (stereo not drawn) [Example 349, N-(5-((4a,10b- trans)-6-ethyl-10b-methyl-5-oxo-2,4,4a,5,6,10b-hexahydro-1H-pyrano[3,4-c][1,8]naphthyridin-9-yl)-6-methylpyridin-3-yl)-3-(trifluoromethyl) benzamide] came in with an IC50 of 3 nM.
With `Cc1ncc(NC(=O)c2cccc(C(F)(F)F)c2)cc1-c1cnc2c(c1)N1CCOCCC1CC(=O)N2CCO` (centres unmarked) [Example 319, N-(5-(8-(2-hydroxyethyl)-7-oxo-1,2,4,5,5a,6,7,8-octahydropyrido[3′, 2′:2,3][1,4]diazepino [1,7-d][1,4]oxazepin-11-yl)-6-methylpyridin-3-yl)-3-(trifluoromethyl) benzamide], the IC50 amounted to 2.2 nM.
As for `Cc1ccc(NC(=O)c2ccnc(C(C)(F)F)c2)cc1-c1ccc2c(c1)N1CCOC[C@H]1C[C@@H]2O` (single isomer, unassigned) [Example 19], the figure is 0.019 nM; as for `CNC(=O)C1Cc2ccc(-c3cc(NC(=O)c4ccnc(C(C)(F)F)c4)ccc3C)cc2N2CCOCC12` (racemic) [Example 67, (rac)-9-(5-(2-(1,1-difluoroethyl)isonicotinamido)-2-methylphenyl)-N-methyl-1,2,4,4a,5,6-hexahydro-[1,4]oxazino[4,3-a]quinoline-5-carboxamide], 0.13 nM.
Regarding `CCN1C(=O)[C@H]2[C@@H]3COC[C@@H]3[C@H]2c2cc(-c3cc(NC(=O)c4cncc(C(F)(F)F)c4)ccc3C)cnc21` [Example 277, N-(3-((6aR, 6bR, 9aR, 9bR)-5-ethyl-6-oxo-5,6,6a,6b,7,9,9a,9b-octahydrofuro[3′,4′: 3,4]cyclobuta[1,2-c][1,8]naphthyridin-2-yl)-4-methylphenyl)-5-(trifluoromethyl) nicotinamide], the IC50 is 0.1 nM.
The result for `Cc1ccc(NC(=O)c2ccnc(C(C)(F)F)c2)cc1-c1cnc2c(c1)N1CCOC[C@@H]1C(F)(F)[C@@H]2O` [Example 165, N-(3-((4aR,6R)-5,5-difluoro-6-hydroxy-1,2,4,4a,5,6-hexahydro-[1,4]oxazino[4,3-a][1,5]naphthyridin-9-yl)-4-methylphenyl)-2-(1,1-difluoroethyl)isonicotinamide] reads 0.62 nM.
`CCN1C(=O)C2(F)COCC[C@@H]2c2cc(-c3cc(NC(=O)c4cccc(C(F)(F)F)c4)cnc3C)cnc21` (stereo partly drawn) [Example 340, N-(5-((10bR)-6-ethyl-4a-fluoro-5-oxo-2,4,4a,5,6,10b-hexahydro-1H-pyrano[3,4-c][1,8]naphthyridin-9-yl)-6-methylpyridin-3-yl)-3-(trifluoromethyl) benzamide] registered an IC50 of 1.3 nM.
In turn, `Cc1ccc(NC(=O)c2cncc(C(F)(F)F)c2)cc1-c1cnc2c(c1)N1CCOC[C@@H]1C[C@@H]2O` [Example 146, N-(3-((4aS,6S)-6-hydroxy-1,2,4,4a,5,6-hexahydro-[1,4]oxazino[4,3-a][1,5]naphthyridin-9-yl)-4-methylphenyl)-5-(trifluoromethyl)nicotinamide] yielded an IC50 of 0.012 nM.
As for `Cc1ccc(NC(=O)c2ccnc(C(F)(F)F)c2)cc1-c1cnc2c(c1)N1CCOCC1C(=O)N2` (racemic) [Example 112, rac-N-(4-Methyl-3-(5-oxo-1,2,4,4a,5,6-hexahydropyrido[2′,3′:5,6]pyrazino[2,1-c][1,4]oxazin-9-yl)phenyl)-2-(trifluoromethyl)isonicotinamide], the figure is < 0.0017 nM.
The compound `Cc1ccc(NC(=O)c2cc(Cl)nc(C(F)(F)F)c2)cc1-c1ccc2c(c1)N1CCOC[C@H]1[C@](F)(CO)C2` [Example 391, 2-chloro-N-(3-((4aS,5S)-5-fluoro-5-(hydroxymethyl)-1,2,4,4a,5,6-hexahydro-[1,4]oxazino[4,3-a]quinolin-9-yl)-4-methylphenyl)-6-(trifluoromethyl)isonicotinamide] registered an IC50 of 6.8 nM.
The result for `CCN1C(=O)OC2COCCC2c2cc(-c3cc(NC(=O)c4ccnc(C(F)(F)F)c4)ccc3C)cnc21` [Example 297, N-(3-((4aS,11bR- cis)7-ethyl-6-oxo-2,4,4a,6,7,11b-hexahydro-1H-pyrano[4,3-f]pyrido[2,3-d][1,3]oxazepin-10-yl)-4-methylphenyl)-2-(trifluoromethyl) isonicotinamide] reads 0.2 nM; that for `Cc1ccc(NC(=O)c2ccnc(C(C)(F)F)c2)cc1-c1cnc2c(c1)N1CCOC[C@@H]1[C@H](C(C)(C)O)C2` [Example 450, 2-(1,1-difluoroethyl)-N-(3-((4aS,5R)-5-(2-hydroxypropan-2-yl)-1,2,4,4a,5,6-hexahydro-[1,4]oxazino[4,3-a][1,5]naphthyridin-9-yl)-4-methylphenyl) isonicotinamide], 0.2 nM.
The result for `CCN1C(=O)[C@@H]2[C@H]3COC[C@H]3[C@@H]2c2cc(-c3cc(NC(=O)c4cncc(C(F)(F)F)c4)ccc3C)cnc21` [Example 274, N-(3-((6aS, 6bS, 9aS, 9bS)-5-ethyl-6-oxo-5,6,6a,6b,7,9,9a,9b-octahydrofuro[3′,4′: 3,4]cyclobuta[1,2-c][1,8]naphthyridin-2-yl)-4-methylphenyl)-5-(trifluoromethyl) nicotinamide] reads 0.5 nM; that for `CCN1C[C@@H]2COCCN2c2cc(-c3cc(NC(=O)c4ccnc(C(F)(F)F)c4F)ccc3C)cnc2C1=O` [Example 503], 0.1 nM.
On to `Cc1ccc(NC(=O)c2ccnc(C(C)(F)F)c2)cc1-c1cnc2c(c1)N1CCOC[C@H]1C[C@@]2(O)C(F)(F)F` (racemic) [Example 169, rac-cis-2-(1,1-difluoroethyl)-N-(3-(6-hydroxy-6-(trifluoromethyl)-1,2,4,4a,5,6-hexahydro-[1,4]oxazino[4,3-a][1,5]naphthyridin-9-yl)-4-methylphenyl)isonicotinamide], for which the IC50 turned out to be 0.032 nM.
The result for `Cc1ccc(NC(=O)c2ccnc(C(C)(C)F)c2)cc1-c1cc(F)c2c(c1)N1CCOC[C@H]1[C@@](F)(CO)C2` [Example 432, N-(3-((4aS,5R)-5,7-difluoro-5-(hydroxymethyl)-1,2,4,4a,5,6-hexahydro-[1,4]oxazino[4,3-a]quinolin-9-yl)-4-methylphenyl)-2-(2-fluoropropan-2-yl)isonicotinamide] reads 0.7 nM; that for `COC1CC2COCCN2c2cc(-c3cc(NC(=O)c4ccnc(C(F)(F)F)c4)ccc3C)cnc21` (racemic) [Example 34], 0.0087 nM; that for `Cc1ncc(NC(=O)c2cccc(C(F)(F)F)c2)cc1-c1cc(F)c2c(c1)N1CCOC[C@@H]1[C@@](F)(CO)C2` [Example 426, N-(5-((4aR,5R)-5,7-difluoro-5-(hydroxymethyl)-1,2,4,4a,5,6-hexahydro-[1,4]oxazino[4,3-a]quinolin-9-yl)-6-methylpyridin-3-yl)-3-(trifluoromethyl)benzamide], 0.4 nM.
In turn, `CCN1C(=O)C2COCCN2c2cc(-c3cc(NC(=O)c4ccnc(C(F)(F)F)c4)ccc3C)cnc21` (stereo in doubt) [Example 114, (S)-N-(3-(6-Ethyl-5-oxo-1,2,4,4a,5,6-hexahydropyrido[2′,3′:5,6]pyrazino[2,1-c][1,4]oxazin-9-yl)-4-methylphenyl)-2-(trifluoromethyl)isonicotinamide] returned a half-inhibitory concentration (IC50) of 0.07 nM.
`Cc1ccc(NC(=O)c2ccnc(C(C)(F)F)c2)cc1-c1ccc2c(c1)N1CCOC[C@@H]1[C@@H](C(=O)O)C2` (racemic) [Example 100, (rac)-(cis)-9-(5-(2-(1,1-difluoroethyl)isonicotinamido)-2-methylphenyl)-1,2,4,4a,5,6-hexahydro-[1,4]oxazino[4,3-a]quinoline-5-carboxylic Acid] returned an IC50 of 0.037 nM.
`CCNC(=O)C1Cc2ccc(-c3cc(NC(=O)c4ccnc(C(C)(F)F)c4)ccc3C)cc2N2CCOCC12` (racemic) [Example 74, (rac)-9-(5-(2-(1,1-difluoroethyl)isonicotinamido)-2-methylphenyl)-N-ethyl-1,2,4,4a,5,6-hexahydro-[1,4]oxazino[4,3-a]quinoline-5-carboxamide]: the IC50 is 0.28 nM.
